Measured values reported in ChEMBL document CHEMBL3600303, “The N-Terminal T-T Motif of a Third-Generation HIV-1 Fusion Inhibitor Is Not Required for Binding Affinity and Antiviral Activity” (J Med Chem, 2015).
Activity calls are given as the source filed them. The rule behind the calls is not given here.

Columns and labels:
[1] = Thermostability of the compound in PBS assessed as melting temperature at 20 uM by CD spectroscopic analysis; type: physicochemical; conditions: buffer
[2] = target: Envelope glycoprotein gp160 (Human immunodeficiency virus type 1 group M subtype B (isolate HXB2)(HIV-1)) (UniProt P04578); experiment: Binding affinity to HIV-1 HXB2 gp41 N-terminal heptad repeat assessed as thermostability of protein-compound complex at 10 uM after 30 mins by CD spectroscopic analysis; conditions: Human immunodeficiency virus 1
[3] = tested on: Human immunodeficiency virus 1; experiment: Antiviral activity against HIV1 NL4-3 pseudovirus infected in human TZM-bl cells assessed as inhibition of viral entry into cells after 48 hrs by single-cycle infection assay; type: functional, organism-based; conditions: Human immunodeficiency virus 1, NL4-3, TZM-bl
[4] = tested on: Human immunodeficiency virus 1; experiment: Antiviral activity against wild type HIV1 NL4-3 infected in human TZM-bl cells assessed as inhibition of viral replication after 2 days by luciferase reporter gene assay; type: functional, organism-based; conditions: Human immunodeficiency virus 1, NL4-3, TZM-bl, 48 h
[5] = tested on: Human immunodeficiency virus 1; experiment: Antiviral activity against HIV-1 ZM214M.15 pseudovirus infected in human TZM-bl cells assessed as inhibition of viral entry into cells after 48 hrs by single-cycle infection assay; type: functional, organism-based; conditions: Human immunodeficiency virus 1, ZM214M.15, TZM-bl
[6] = tested on: Human immunodeficiency virus 1; experiment: Antiviral activity against HIV-1 SF162 pseudovirus infected in human TZM-bl cells assessed as inhibition of viral entry into cells after 48 hrs by single-cycle infection assay; type: functional, organism-based; conditions: Human immunodeficiency virus 1, SF162, TZM-bl
[7] = tested on: Human immunodeficiency virus 1; experiment: Antiviral activity against HIV-1 SC42261.8 pseudovirus infected in human TZM-bl cells assessed as inhibition of viral entry into cells after 48 hrs by single-cycle infection assay; type: functional, organism-based; conditions: Human immunodeficiency virus 1, SC42261.8, TZM-bl
[8] = target: Envelope glycoprotein gp160 (Human immunodeficiency virus type 1 group M subtype B (isolate HXB2)(HIV-1), UniProt P04578); experiment: Binding affinity to HIV-1 HXB2 gp41 N-terminal heptad repeat assessed as inhibition of 6-helix bundle formation after 30 mins by ELISA; parameters: species or system Human immunodeficiency virus 1
[9] = tested on: Human immunodeficiency virus 1; experiment: Antiviral activity against wild type HIV1 NL4-3 infected in human TZM-bl cells assessed as inhibition of viral entry into cells after 48 hrs by single-cycle infection assay; type: functional, organism-based; conditions: Human immunodeficiency virus 1, NL4-3, TZM-bl
[10] = tested on: Human immunodeficiency virus 1; experiment: Antiviral activity against ENF-resistant HIV1 NL4-3 harboring gp41 N-terminal heptad repeat D36G mutant infected in human TZM-bl cells assessed as inhibition of viral entry into cells after 48 hrs by single-cycle infection assay; type: functional, organism-based
[11] = tested on: Human immunodeficiency virus 1; experiment: Antiviral activity against ENF-resistant HIV1 NL4-3 harboring gp41 N-terminal heptad repeat I37T mutant infected in human TZM-bl cells assessed as inhibition of viral entry into cells after 48 hrs by single-cycle infection assay; type: functional, organism-based
[12] = tested on: Human immunodeficiency virus 1; experiment: Antiviral activity against ENF-resistant HIV1 NL4-3 harboring gp41 N-terminal heptad repeat V38A mutant infected in human TZM-bl cells assessed as inhibition of viral entry into cells after 48 hrs by single-cycle infection assay; type: functional, organism-based
[13] = tested on: Human immunodeficiency virus 1; experiment: Antiviral activity against ENF-resistant HIV1 NL4-3 harboring gp41 N-terminal heptad repeat V38M mutant infected in human TZM-bl cells assessed as inhibition of viral entry into cells after 48 hrs by single-cycle infection assay; type: functional, organism-based
[14] = tested on: Human immunodeficiency virus 1; experiment: Antiviral activity against ENF-resistant HIV1 NL4-3 harboring gp41 N-terminal heptad repeat Q40H mutant infected in human TZM-bl cells assessed as inhibition of viral entry into cells after 48 hrs by single-cycle infection assay; type: functional, organism-based
[15] = tested on: Human immunodeficiency virus 1; experiment: Antiviral activity against ENF-resistant HIV1 NL4-3 harboring gp41 N-terminal heptad repeat N43K mutant infected in human TZM-bl cells assessed as inhibition of viral entry into cells after 48 hrs by single-cycle infection assay; type: functional, organism-based
[16] = tested on: Human immunodeficiency virus 1; experiment: Antiviral activity against ENF-resistant HIV1 NL4-3 harboring gp41 N-terminal heptad repeat D36S/V38M double mutant infected in human TZM-bl cells assessed as inhibition of viral entry into cells after 48 hrs by single-cycle infection assay; type: functional, organism-based
[17] = tested on: Human immunodeficiency virus 1; experiment: Antiviral activity against ENF-resistant HIV1 NL4-3 harboring gp41 N-terminal heptad repeat I37T/N43K double mutant infected in human TZM-bl cells assessed as inhibition of viral entry into cells after 48 hrs by single-cycle infection assay; type: functional, organism-based
[18] = tested on: Human immunodeficiency virus 1; experiment: Antiviral activity against ENF-resistant HIV1 NL4-3 harboring gp41 N-terminal heptad repeat V38A/N42T double mutant infected in human TZM-bl cells assessed as inhibition of viral entry into cells after 48 hrs by single-cycle infection assay; type: functional, organism-based
[19] = tested on: Human immunodeficiency virus 1; experiment: Ratio of IC50 for ENF-resistant HIV1 NL4-3 harboring gp41 N-terminal heptad repeat D36G mutant to IC50 for wild type HIV1 NL4-3; type: functional
[20] = tested on: Human immunodeficiency virus 1; experiment: Ratio of IC50 for ENF-resistant HIV1 NL4-3 harboring gp41 N-terminal heptad repeat I37T mutant to IC50 for wild type HIV1 NL4-3; type: functional
[21] = tested on: Human immunodeficiency virus 1; experiment: Ratio of IC50 for ENF-resistant HIV1 NL4-3 harboring gp41 N-terminal heptad repeat V38A mutant to IC50 for wild type HIV1 NL4-3; type: functional
[22] = tested on: Human immunodeficiency virus 1; experiment: Ratio of IC50 for ENF-resistant HIV1 NL4-3 harboring gp41 N-terminal heptad repeat V38M mutant to IC50 for wild type HIV1 NL4-3; type: functional
[23] = tested on: Human immunodeficiency virus 1; experiment: Ratio of IC50 for ENF-resistant HIV1 NL4-3 harboring gp41 N-terminal heptad repeat Q40H mutant to IC50 for wild type HIV1 NL4-3; type: functional
[24] = tested on: Human immunodeficiency virus 1; experiment: Ratio of IC50 for ENF-resistant HIV1 NL4-3 harboring gp41 N-terminal heptad repeat N43K mutant to IC50 for wild type HIV1 NL4-3; type: functional
[25] = tested on: Human immunodeficiency virus 1; experiment: Ratio of IC50 for ENF-resistant HIV1 NL4-3 harboring gp41 N-terminal heptad repeat D36S/V38M double mutant to IC50 for wild type HIV1 NL4-3; type: functional
[26] = tested on: Human immunodeficiency virus 1; experiment: Ratio of IC50 for ENF-resistant HIV1 NL4-3 harboring gp41 N-terminal heptad repeat I37T/N43K double mutant to IC50 for wild type HIV1 NL4-3; type: functional
[27] = tested on: Human immunodeficiency virus 1; experiment: Ratio of IC50 for ENF-resistant HIV1 NL4-3 harboring gp41 N-terminal heptad repeat V38A/N42T double mutant to IC50 for wild type HIV1 NL4-3; type: functional
[28] = target: Envelope glycoprotein gp160 (Human immunodeficiency virus 1) (UniProt Q72502); experiment: Binding affinity to HIV1 NL4-3 gp41 N-terminal heptad repeat G36D mutant after 30 mins by CD spectroscopic analysis
[29] = target: Envelope glycoprotein gp160 (Human immunodeficiency virus 1) (UniProt Q72502); experiment: Binding affinity to HIV1 NL4-3 gp41 N-terminal heptad repeat I37T mutant after 30 mins by CD spectroscopic analysis
[30] = tested on: Envelope glycoprotein gp160 (Human immunodeficiency virus 1), Q72502 [V38A]; experiment: Binding affinity to HIV1 NL4-3 gp41 N-terminal heptad repeat V38A mutant after 30 mins by CD spectroscopic analysis
[31] = target: Envelope glycoprotein gp160 (Human immunodeficiency virus 1) (UniProt Q72502); experiment: Binding affinity to HIV1 NL4-3 gp41 N-terminal heptad repeat Q40H mutant after 30 mins by CD spectroscopic analysis
[32] = target: Envelope glycoprotein gp160 (Human immunodeficiency virus 1) (UniProt Q72502); experiment: Binding affinity to HIV1 NL4-3 gp41 N-terminal heptad repeat N43K mutant after 30 mins by CD spectroscopic analysis
[33] = target: Envelope glycoprotein gp160 (Human immunodeficiency virus 1) (UniProt Q72502); experiment: Binding affinity to HIV1 NL4-3 gp41 N-terminal heptad repeat I37T/N43K double mutant after 30 mins by CD spectroscopic analysis
[34] = target: Envelope glycoprotein gp160 (Human immunodeficiency virus 1) (UniProt Q72502); experiment: Binding affinity to HIV1 NL4-3 gp41 N-terminal heptad repeat V38A/N42T double mutant after 30 mins by CD spectroscopic analysis
[35] = tested on: Human immunodeficiency virus 1; experiment: Antiviral activity against wild type HIV-1; type: functional, organism-based
[36] = tested on: Human immunodeficiency virus 1; experiment: Antiviral activity against HIV-1 pseudovirus harboring Q66R/N126K double mutant; type: functional, organism-based
[37] = tested on: Serum; experiment: Metabolic stability in Sprague-Dawley rat serum at 4 mg/kg, ip measured at 0.5 to 2 hrs post dose; type: ADME, organism-based; conditions: in vivo

CC[C@H](C)[C@H](NC(=O)[C@H](C)NC(=O)[C@H](CCCNC(=N)N)NC(=O)[C@H](CC(=O)O)NC(=O)[C@H](Cc1c[nH]c2ccccc12)NC(=O)[C@H](C)NC(=O)[C@H](CCC(=O)O)NC(=O)[C@H](Cc1c[nH]c2ccccc12)NC(=O)[C@@H](NC(=O)[C@@H](N)[C@@H](C)O)[C@@H](C)O)C(=O)N[C@@H](C)C(=O)N[C@@H](CCC(=O)O)C(=O)N[C@@H](Cc1ccc(O)cc1)C(=O)N[C@@H](C)C(=O)N[C@@H](C)C(=O)N[C@@H](CCCNC(=N)N)C(=O)N[C@H](C(=O)N[C@@H](CCC(=O)O)C(=O)N[C@@H](C)C(=O)N[C@@H](CC(C)C)C(=O)N[C@H](C(=O)N[C@@H](CCCNC(=N)N)C(=O)N[C@@H](C)C(=O)N[C@@H](C)C(=O)N[C@@H](CCC(N)=O)C(=O)N[C@@H](CCC(=O)O)C(=O)N[C@@H](CCC(N)=O)C(=O)N[C@@H](CCC(N)=O)C(=O)N[C@@H](CCC(=O)O)C(=O)N[C@@H](CCCCN)C(=O)N[C@@H](CC(N)=O)C(=O)N[C@@H](CCC(=O)O)C(=O)N[C@@H](C)C(=O)N[C@@H](C)C(=O)N[C@@H](CC(C)C)C(=O)N[C@@H](CCCNC(=N)N)C(=O)N[C@@H](CCC(=O)O)C(=O)N[C@@H](CC(C)C)C(=O)O)[C@@H](C)CC)[C@@H](C)CC showed a Tm [1] of 45.1 °C, a Tm [2] of 82.2 °C and an IC50 [3] of 1.15 nM. It also gave an IC50 [4] of 0.52 nM, an IC50 [5] of 0.68 nM and an IC50 [6] of 12.5 nM. The IC50 [7] was 2.64 nM, the IC50 [8] was 67.5 nM and the IC50 [9] was 1.1 nM. For the same compound, the IC50 [10] was 1.7 nM, the IC50 [11] was 1.8 nM and the IC50 [12] was 1.3 nM. For the same compound, the IC50 [13] was 1.8 nM, the IC50 [14] was 1.4 nM and the IC50 [15] was 2.1 nM. The IC50 [16] was 1.2 nM, the IC50 [17] was 1.7 nM and the IC50 [18] was 0.8 nM. The “Ratio IC50” value [19] was 1.6, the “Ratio IC50” value [20] was 1.6 and the “Ratio IC50” value [21] was 1.2. For the same compound, the “Ratio IC50” value [22] was 1.6, the “Ratio IC50” value [23] was 1.3 and the “Ratio IC50” value [24] was 1.9. For the same compound, the “Ratio IC50” value [25] was 1.1, the “Ratio IC50” value [26] was 1.6 and the “Ratio IC50” value [27] was 0.7. The Activity [28] was “Active”, the Activity [29] was “Active” and the Activity [30] was “Active”. For the same compound, the Activity [31] was “Active”, the Activity [32] was “Active” and the Activity [33] was “Active”. The Activity [34] was “Active”, the IC50 [35] was 1.32 nM and the IC50 [36] was 8.36 nM. For the same compound, the Stability [37] was “Stable”.
